Results as given in US20090209576A1, “PHARMACEUTICAL COMPOSITION CONTAINING CLOPIDOGREL CAMPHORSULFONATE OR POLYMORPHIC FORMS THEREOF” (HANMI PHARM. CO., LTD., priority 2006, published 2009).
Where a name gives a salt, the structure may show the parent alone. Read-outs that look alike come from different tables or passages of the source.

How the values were obtained:
physchem = assay: physchem
From the text: (§1) Condition A: For the Measurement of the Assay of Acid Addition Salt of Clopidogrel
(§2) Column: Kromasil C18, 5 μm (250 mm×4.6 mm)
(§3) Mobile phase: Na2HPO4—NaH2PO4 buffer solution:TBF:CH3CN=5:2:3 (v/v)
The camphorsulfonate polymorphic form A1 obtained in Example 1, the camphorsulfonate polymorphic form B1 obtained in Example 2, the hydrogen sulfate obtained in Comparative Example 1 and the benzenesulfonate obtained in Comparative Example 2 were each dissolved in unionized water until saturated. The amounts of clopidogrel in the resulting solutions were measured under HPLC condition A, and the results are shown in Table 5.

[1] = for water content / hygroscopicity under accelerated condition: 60° C. and 75% relative humidity for a period of over 28 days; for Amount of acid addition salts of clopidogrel / Amount of hydrolyzed impurities / Amount of levorotatory isomers / Water content: 60±2° C., 75±5% relative humidity
Experimental: as §1, §2, §3
Condition B: For the Measurement of the Amount of Hydrolyzed Impurities of Acid Addition Salt of Clopidogrel
Column: Capcellpak C18 MG, 5 μm (250 mm×4.6 mm)
Mobile phase: KH2PO4 buffer solution/CH3CN (70/30):KH2PO4 buffer solution/CH3CN (30/70)=0:100→[…] (v/v, gradient elution)
Condition C: For the Measurement of the Optical Purity of Acid Addition Salt of Clopidogrel
Column: Chiralpak AD, 5 μm (250 mm×4.6 mm)
Mobile phase: n-hexane:isopropanol=90:10 (v/v)
The camphorsulfonate polymorphic form A1 obtained in Example 1, the camphorsulfonate polymorphic form B1 obtained in Example 2, the hydrogen sulfate obtained in Comparative Example 1 and the benzenesulfonate obtained in Comparative Example 2 were each subjected to a condition of 60±2° C. and 75±5% relative humidity for a period of 28 days to test their stabilities. The changes of the assay of the acid addition salts of clopidogrel, and the amounts of hydrolyzed impurities and levorotatory isomers thereof and the water content thereof were measured at 7, 14, 21 and 28 days relative to that of the initial day (0) using HPLC. The results are shown in Tables 6 to 9 and FIGS. 12 to 15, respectively.

[2] = dissolved in unionized water until saturated, HPLC condition A

| Compound | Water-solubility (physchem; [2]) | water content / hygroscopicity under accelerated condition [1] | Amount of acid addition salts of clopidogrel ([1]; 0 day) [%] | Amount of hydrolyzed impurities ([1]; 0 day) [%] | Amount of levorotatory isomers ([1]; 0 day) [%] | Water content ([1]; 0 day) [%] | Amount of acid addition salts of clopidogrel ([1]; 7 days) [%] | Amount of hydrolyzed impurities ([1]; 7 days) [%] | Amount of levorotatory isomers ([1]; 7 days) [%] | Water content ([1]; 7 days) [%] | Amount of acid addition salts of clopidogrel ([1]; 14 days) [%] | Amount of hydrolyzed impurities ([1]; 14 days) [%] | Amount of levorotatory isomers ([1]; 14 days) [%] | Water content ([1]; 14 days) [%] | Water content ([1]; 21 days) [%] | Amount of acid addition salts of clopidogrel ([1]; 28 days) [%] | Amount of hydrolyzed impurities ([1]; 28 days) [%] | Amount of levorotatory isomers ([1]; 28 days) [%] | Water content ([1]; 28 days) [%] | also measured |
| --- | --- | --- | --- | --- | --- | --- | --- | --- | --- | --- | --- | --- | --- | --- | --- | --- | --- | --- | --- | --- |
| COC(=O)C(c1ccccc1Cl)N1CCc2sccc2C1 (stereo in doubt) [Camphorsulfonate (polymorphic form A1), clopidogrel (−)-(1R)-camphor-10-sulfonate] | 4.04 mg/ml, as clopidogrel | almost maintain their original water contents | 99.2 | 0.01 | 0.02 | 0.0 | 99.1 | 0.08 | 0.02 | 0.1 | 99.6 | 0.15 | 0.02 | 0.0 | 0.0 | 99.1 | 0.17 | 0.02 | 0.1 | solubility (physchem; unionized water, water, thermodynamic from solid): ~4000 µg/mL |
| COC(=O)[C@H](c1ccccc1Cl)N1CCc2sccc2C1 [Camphorsulfonate (polymorphic form B1), clopidogrel (+)-(1S)-camphor-10-sulfonate] | 3.98 mg/ml, as clopidogrel | almost maintain their original water contents | 99.6 | 0.01 | 0.01 | 0.1 | 99.2 | 0.01 | 0.01 | 0.1 | 99.9 | 0.02 | 0.02 | 0.1 | 0.1 | 99.3 | 0.03 | 0.03 | 0.1 | Water-solubility (physchem; measured in a saturated aqueous solution): around 4.0 mg/ml |
| COC(=O)[C@H](c1ccccc1Cl)N1CCc2sccc2C1 [Hydrogen sulfate, Clopidogrel hydrogen sulfate, reference compound] | 7.42 mg/ml, as clopidogrel | – | 99.2 | 0.03 | 0.01 | 0.2 | 98.8 | 0.72 | 0.05 | 0.3 | 97.5 | 2.15 | 0.19 | 0.8 | 2.8 | 80.5 | 16.49 | 1.53 | 7.3 | – |
| Clopidogrel benzenesulfonate [reference compound] | 4.74 mg/ml, as clopidogrel | – | 99.3 | 0.01 | 0.01 | 0.1 | 93.9 | 2.79 | 0.81 | 6.4 | 80.5 | 8.56 | 2.49 | 7.3 | 9.2 | 61.7 | 25.33 | 4.79 | 9.4 | – |
